From ChEMBL document CHEMBL1201862, “PubChem BioAssay data set” (2004) come the findings set out here.

The nature of assay [1]: cells. Format: functional, cell-based.
The target of assay [2] is T1, Nuclear receptor subfamily 0 group B member 1 (Homo sapiens, UniProt P51843).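 Also: HEK293T cells transfected with SF-1 and DAX-1 plus StAR promoter luciferase reporter.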
T1 sequence (P51843 whole entry): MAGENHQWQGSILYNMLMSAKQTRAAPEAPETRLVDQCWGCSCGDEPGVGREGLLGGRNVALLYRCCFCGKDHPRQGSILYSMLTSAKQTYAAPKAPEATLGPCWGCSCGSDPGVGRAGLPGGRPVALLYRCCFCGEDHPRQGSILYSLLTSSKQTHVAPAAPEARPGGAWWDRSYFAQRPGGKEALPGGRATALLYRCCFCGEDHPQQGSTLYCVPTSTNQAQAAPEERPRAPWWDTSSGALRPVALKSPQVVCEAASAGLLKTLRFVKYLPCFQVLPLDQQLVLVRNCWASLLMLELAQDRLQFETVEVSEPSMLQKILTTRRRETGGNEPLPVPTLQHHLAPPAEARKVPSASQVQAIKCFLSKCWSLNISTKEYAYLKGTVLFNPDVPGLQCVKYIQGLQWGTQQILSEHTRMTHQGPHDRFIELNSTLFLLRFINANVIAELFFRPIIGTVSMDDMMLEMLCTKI
The assay is classed as functional, cell-based.

Assay [3] in a line: Counterscreen for antagonists of the orexin 1 receptor (OX1R; HCRTR1): Fluorescence-based cell-based high throughput dose response assay to identify antagonists of the parental CHO cell line. [Related pubchem assays (depositor defined):AID434989, AID435008, AID463079, AID485270, AID492963, AID492964, AID492965, AID493232, AID504699, AID504701]. The assay is classed as functional.

In assay [4] the target is T2, Orexin/Hypocretin receptor type 1 (Homo sapiens, UniProt O43613).
T2 sequence (O43613 whole entry): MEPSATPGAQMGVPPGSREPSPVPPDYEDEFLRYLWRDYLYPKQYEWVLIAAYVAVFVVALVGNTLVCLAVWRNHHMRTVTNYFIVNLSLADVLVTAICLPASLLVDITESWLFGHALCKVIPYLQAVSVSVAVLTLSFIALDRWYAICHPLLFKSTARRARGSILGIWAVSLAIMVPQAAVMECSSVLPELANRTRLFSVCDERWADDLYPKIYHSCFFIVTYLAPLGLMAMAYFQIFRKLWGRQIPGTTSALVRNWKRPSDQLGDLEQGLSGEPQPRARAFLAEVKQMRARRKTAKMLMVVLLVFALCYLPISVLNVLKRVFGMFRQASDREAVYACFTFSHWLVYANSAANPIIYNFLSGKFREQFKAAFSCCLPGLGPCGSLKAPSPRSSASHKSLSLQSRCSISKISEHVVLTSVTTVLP
Briefly: Fluorescence-based cell-based high throughput dose response assay for antagonists of the orexin 1 receptor (OX1R; HCRTR1). [Related pubchem assays (depositor defined):AID434989, AID435008, AID463079, AID485270, AID492963, AID492964, AID492965, AID493232, AID504717, AID504718]. The assay is classed as functional.

Assay [5] has as its target T3, Orexin receptor type 2 (Homo sapiens, UniProt O43614).
T3 sequence (O43614 whole entry): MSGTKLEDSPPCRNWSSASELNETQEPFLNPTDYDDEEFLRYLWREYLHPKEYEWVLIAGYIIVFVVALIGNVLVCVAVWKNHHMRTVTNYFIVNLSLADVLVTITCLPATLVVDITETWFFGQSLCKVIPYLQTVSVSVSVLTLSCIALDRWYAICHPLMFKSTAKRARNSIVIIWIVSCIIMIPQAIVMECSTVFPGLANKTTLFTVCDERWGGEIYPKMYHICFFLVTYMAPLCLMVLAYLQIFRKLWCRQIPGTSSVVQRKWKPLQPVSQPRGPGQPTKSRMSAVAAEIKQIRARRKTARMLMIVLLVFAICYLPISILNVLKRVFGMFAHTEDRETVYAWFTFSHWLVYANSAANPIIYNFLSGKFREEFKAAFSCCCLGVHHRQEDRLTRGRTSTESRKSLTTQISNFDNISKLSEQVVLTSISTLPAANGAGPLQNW
Briefly: Counterscreen assay for antagonists of the orexin 1 receptor (OX1R; HCRTR1): Fluorescence-based cell-based dose response assay for antagonists of the orexin 2 receptor (OX2R; HCRTR2), run by assay provider. Format: functional. (In general: The purpose of a counterscreen is to sort out artefacts and off-target activity.)

A further assay deals with CHO-K1. Briefly: Counterscreen for antagonists of the orexin 1 receptor (OX1R; HCRTR1): Homogeneous time resolved fluorescence (HTRF)-based cell-based dose response assay to identify antagonists of the parental CHO-K1 cell line. [Related pubchem assays (depositor defined):AID434989, AID435008, AID463079, AID485270, AID492963, AID492964, AID492965, AID493232, AID504699, AID504701]. The assay is classed as functional. The following applies: Cricetulus griseus.

The subject of another assay is H4. Description: Luminescence Cell-Based Dose Response HTS to Identify Activators of 5'UTR Stem-Loop Driven Prion Protein mRNA Translation in H4 Neuroglioblastoma Cells. [Related pubchem assays: 1829 (Project Summary), 1814 (Primary HTS)]. Format: functional. Particulars: Homo sapiens.
In assay [6] the target is T2, Orexin/Hypocretin receptor type 1. Description: Homogeneous Time Resolved Fluorescence (HTRF)-based cell-based high throughput dose response assay for antagonists of the orexin 1 receptor (OX1R; HCRTR1). [Related pubchem assays (depositor defined):AID434989, AID435008, AID463079, AID485270, AID492963, AID492964, AID492965, AID493232, AID504717, AID504718]. Format: functional. For orientation: TR-FRET usually uses a lanthanide donor and a delayed reading to cut background.

Assay [7] addresses T3, Orexin receptor type 2. Description: Counterscreen assay for antagonists of the orexin 1 receptor (OX1R; HCRTR1): Homogeneous Time Resolved Fluorescence (HTRF)-based cell-based dose response assay for antagonists of the orexin 2 receptor (OX2R; HCRTR2), run by assay provider. Format: functional.
Assay [8] is described as follows: cells. The assay is classed as functional.
Assay [9] has as its target T4, DNA repair protein RAD52 homolog (Homo sapiens, UniProt P43351).
T4 sequence (P43351 whole entry): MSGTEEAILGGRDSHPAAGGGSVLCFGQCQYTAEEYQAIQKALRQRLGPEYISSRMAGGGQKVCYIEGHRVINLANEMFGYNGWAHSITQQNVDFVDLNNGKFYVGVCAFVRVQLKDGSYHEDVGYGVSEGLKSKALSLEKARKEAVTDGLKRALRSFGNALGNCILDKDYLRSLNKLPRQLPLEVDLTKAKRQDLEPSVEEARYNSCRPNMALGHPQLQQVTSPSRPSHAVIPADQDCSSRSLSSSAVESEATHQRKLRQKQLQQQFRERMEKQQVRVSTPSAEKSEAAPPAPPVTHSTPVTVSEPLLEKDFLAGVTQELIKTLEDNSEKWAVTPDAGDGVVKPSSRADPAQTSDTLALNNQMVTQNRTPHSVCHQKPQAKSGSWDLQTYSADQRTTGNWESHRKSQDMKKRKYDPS
Format: functional, biochemical.

For a further assay, the target named is T5, fMet-Leu-Phe receptor (Homo sapiens, UniProt P21462).
T5 sequence (P21462 whole entry): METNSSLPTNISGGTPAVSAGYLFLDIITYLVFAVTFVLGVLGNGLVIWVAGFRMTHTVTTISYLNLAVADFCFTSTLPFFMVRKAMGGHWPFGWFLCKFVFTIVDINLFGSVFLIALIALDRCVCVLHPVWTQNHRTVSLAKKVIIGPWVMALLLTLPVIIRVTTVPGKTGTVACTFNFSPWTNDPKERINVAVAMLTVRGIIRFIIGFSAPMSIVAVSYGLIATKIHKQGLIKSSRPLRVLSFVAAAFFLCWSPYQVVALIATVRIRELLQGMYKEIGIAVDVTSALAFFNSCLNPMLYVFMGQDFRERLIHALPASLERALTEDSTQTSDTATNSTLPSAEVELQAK
Description: formyl peptide receptor binders – dose response (AID 519). The assay is classed as functional.

In the next assay the target is Cytochrome P450 3A4 (Homo sapiens, UniProt P08684).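 Also: CYP3A4 tested as one member of a cytochrome P450 panel screen.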
A short description of assay [10]: Luminescence Cell-Based Dose Retest to Confirm Inhibitors of Cancer Stem Cells. [Related pubchem assays (depositor defined):AID2717, AID2721]. Particulars: Homo sapiens. The assay is classed as functional.
Assay [11] in a line: loss of viability in HepG2 cells – cell-based, CellTiter-Glo, cherry-picked, cytotoxicity control for Shn3 inhibitor project, dose response (AID 624134). Format: functional. On the technique in general: ATP-based viability assays read luminescence as a measure of living cells.
A short description of assay [12]: non-specific 3'UTR reporter inhibition in Clone20-Shn3RL – cell-based, Renilla luciferase, cherry-picked, counter-screen for Shn3 inhibitor project, dose response (AID 624133). The assay is classed as functional.
Assay [13] in a line: reduction of Shn3 3'UTR-driven luciferase in osteoblasts – cell-based, Clone20 osteoblasts, firefly luciferase, cherry-picked, dose response (AID 624132).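 Also: firefly luciferase luminescence from reporter carrying the Shn3 3'UTR in osteoblasts.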 The assay is classed as functional.
Assay [14] is described as follows: Fluorescence-based cell-based high throughput dose response assay for inhibitors of the interaction of nucleotide-binding oligomerization domain containing 2 (NOD2) and the receptor-interacting serine-threonine kinase 2 (RIPK2). Format: functional. The following applies: Homo sapiens.
Assay [15] in a line: OVCAR8 cell viability loss – plate reader, dry powder samples, PAX8 project, dose response (AID 743197). Particulars: OVCAR-8. The assay is classed as functional, cell-based.
The target in another assay is Paired box protein Pax-8 (Homo sapiens, UniProt Q06710). Description: PAX8 transcriptional activity inhibition in RMG-I – RMG-I cells, luciferase, cherry-pick, dose response (AID 687027).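 Also: luciferase reporter driven by Pax8 target thyroperoxidase promoter measured by SteadyGlo luminescence.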 Format: functional, cell-based.
The nature of assay [16]: OVCAR-3 cell viability loss – plate reader, dry powder samples, PAX8 inhibitor project, dose response (AID 743044). The assay is classed as functional, cell-based.

Active and inactive are the calls of the source.

Paired box protein Pax-8, sequence (Q06710 whole entry): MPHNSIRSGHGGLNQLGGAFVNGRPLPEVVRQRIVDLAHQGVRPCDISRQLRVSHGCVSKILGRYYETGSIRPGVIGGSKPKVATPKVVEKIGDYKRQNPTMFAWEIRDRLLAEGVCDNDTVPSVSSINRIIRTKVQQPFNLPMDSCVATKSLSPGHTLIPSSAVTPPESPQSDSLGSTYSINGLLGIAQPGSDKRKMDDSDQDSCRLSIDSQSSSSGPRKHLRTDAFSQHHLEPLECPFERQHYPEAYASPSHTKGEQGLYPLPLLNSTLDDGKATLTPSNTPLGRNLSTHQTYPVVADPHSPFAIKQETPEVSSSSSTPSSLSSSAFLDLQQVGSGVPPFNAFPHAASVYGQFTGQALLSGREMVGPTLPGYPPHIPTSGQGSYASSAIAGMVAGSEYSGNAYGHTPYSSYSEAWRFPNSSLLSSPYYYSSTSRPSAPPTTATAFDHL
Cytochrome P450 3A4, sequence (P08684 whole entry): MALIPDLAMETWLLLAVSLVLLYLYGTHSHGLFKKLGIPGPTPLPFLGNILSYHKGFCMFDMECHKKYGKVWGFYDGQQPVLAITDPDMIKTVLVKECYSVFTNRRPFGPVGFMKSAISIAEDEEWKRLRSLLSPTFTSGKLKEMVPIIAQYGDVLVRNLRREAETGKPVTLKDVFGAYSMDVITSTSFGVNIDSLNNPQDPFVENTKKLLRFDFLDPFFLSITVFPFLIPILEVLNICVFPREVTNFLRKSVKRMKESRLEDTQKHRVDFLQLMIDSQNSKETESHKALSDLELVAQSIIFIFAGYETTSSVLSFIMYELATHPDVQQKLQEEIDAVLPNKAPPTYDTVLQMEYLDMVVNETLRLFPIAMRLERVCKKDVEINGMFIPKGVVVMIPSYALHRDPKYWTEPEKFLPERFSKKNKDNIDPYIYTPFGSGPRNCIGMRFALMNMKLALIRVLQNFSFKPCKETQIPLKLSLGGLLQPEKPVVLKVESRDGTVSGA

The term IC50 denotes the concentration that inhibits the measured activity by half. As for `CNc1nnc(SCC(=O)c2cc(C)n(C3CC3)c2C)s1`, the IC50 was > 67.5 µM (inactive) in “cells [1]” and > 67500 nM (inactive) in [2].

One may read the EC50 as the concentration giving half of the maximal effect. High values mean a less potent agent, low ones a more potent agent. Take `Nc1nc(-c2sc3nc4c(cc3c2N)CCCC4)nc(N2CCOCC2)n1`: the IC50 in [3] was > 49.8 µM (inactive); in [4], 5.52 µM (active); on Orexin receptor type 2 [5], > 88.8 µM (inactive); in the assay on CHO-K1, > 66.2 µM (inactive); in assay [6], 797 nM (active); on Orexin receptor type 2 [7], > 50 µM (inactive). Also, the half-maximal effective concentration (EC50) in the assay on H4 is reported as > 120 µM (not active).

For `Cc1cc(C(=O)NCc2cccc(Cl)c2)c2ccccc2n1`, the IC50 in assay [3] was > 49.7 µM (inactive); in [4], 12.6 µM (inactive); at Orexin receptor type 2 [5] it was > 88.8 µM (inactive); with CHO-K1, > 66.2 µM (inactive); in assay [6], 976 nM (active); on Orexin receptor type 2 [7], 7.59 µM (active).

Regarding `COc1ccccc1C(=O)Nc1nc2cc3c(cc2s1)OCCO3`, the IC50 in [3] was > 49.8 µM (inactive); in assay [4], 6.51 µM (active); at Orexin receptor type 2 [5], > 88.8 µM (inactive); in the assay with CHO-K1, > 66.2 µM (inactive); in assay [6], 1950 nM (active); at Orexin receptor type 2 [7], > 50 µM (inactive).

In the case of `CCOC(=O)c1c(C)nc2c3ccccc3ccn12`, the IC50 is > 49.8 µM (inactive) in assay [3]; 32.9 µM (inactive) in [4]; > 88.8 µM (inactive) at Orexin receptor type 2 [5]; > 66.3 µM (inactive) in the assay with CHO-K1; 3620 nM (active) in assay [6]; 37.3 µM (active) in the assay “cells [8]”. The IC50 at Orexin receptor type 2 [7] is 30 µM (inactive).

The term AC50 denotes the midpoint of the concentration-response curve, whichever way the signal moves. As to `CCOC(=O)c1c(C)n(-c2ccc(C)cc2)c2ccc(OCC(O)CN3CCN(C)CC3)cc12` (configuration not stated), the AC50 in [9] is 6.54 µM (active).

The term Ki denotes a measure of affinity in units of concentration, obtained from inhibition or displacement. `COc1ccc(C2C(C(=O)c3ccco3)=C(O)C(=O)N2Cc2cccnc2)cc1OC` (configuration not stated): the Ki at fMet-Leu-Phe receptor was > 66.7 µM (inactive).

Turning to `CN(CCC#N)c1ccc(/C=C(\C#N)c2ccccn2)cc1`, the IC50 in “cells [1]” is > 67.5 µM (inactive); in assay [2], > 834 nM (active).

In the case of `CCOc1cc(C2C(C(=O)c3ccc(C)o3)=C(O)C(=O)N2CCc2ccccc2)ccc1O` (configuration not stated), the Ki on fMet-Leu-Phe receptor was 30.4 µM (inactive).

With `Cc1nc2c(C#N)c(C)nn2c(O)c1Cc1ccccc1`, on Cytochrome P450 3A4, the AC50 is 25.1 µM (inconclusive). Besides, at fMet-Leu-Phe receptor, the Ki was 50 µM (inactive).

Turning to `O=[N+]([O-])/C=C/c1cn(Cc2ccc(Cl)cc2)c2ccccc12`, the AC50 in assay [10] was 1.88 µM (active); in assay [11], 5.81 µM (active); in [12], 21.2 µM (active); in assay [13] it was 8.32 µM (active). Also, the 50% inhibitory concentration (IC50) in [14] was 6.98 µM (active).

Consider `CCC1(O)CC2CN(CCc3c([nH]c4ccccc34)C(C(=O)OC)(c3cc4c(cc3OC)N(C=O)C3C(O)(C(=O)OC)C(OC(C)=O)C5(CC)C=CCN6CCC43C65)C2)C1` (configuration not stated), for which the IC50 in the assay “cells [1]” was > 67.5 µM (inactive); in assay [2] it was 386 nM (active).

On to `N#Cc1cccc(-c2ccc3c(c2)[C@@H]2[C@@H](CCN2C(=O)C2CCCCC2)[C@@H](CO)N3)c1`, for which the values for the AC50 (in [15]; at Paired box protein Pax-8) were 61.9 µM (active) and 17.8 µM (active), respectively.

As for `C[C@@H]1CCCCO[C@H](CN(C)Cc2ccc(Cl)c(Cl)c2)[C@H](C)CN([C@@H](C)CO)C(=O)c2cc(NC(=O)Nc3ccc(C(F)(F)F)cc3)ccc2O1`, the figures for the AC50 (in assay [16]; in [15]; at Paired box protein Pax-8) were 20.1 µM (active), 51.1 µM (active) and 5.49 µM (active), respectively.
